Measured values from patent publication US10206922B2, “Substituted pyrimidines for treatment of chronic cough, neuronal hypersensitivity underlying chronic cough, neuronal hypersensitivity underlying sub-acute cough and neuronal hypersensitivity underlying acute cough” (Afferent Pharmaceuticals. Inc., priority 2013, dated 2019).

System: idiopathic/treatment-resistant chronic cough patients
Experiment: double-blind randomized placebo-controlled crossover trial in idiopathic/treatment-resistant chronic cough
Assay type: in vivo, human
Conditions: 2 weeks
Experimental: Thus, the inventors explored the role of P2X3 receptors in the sensitization of vagal pathways mediating the cough reflex leading to chronic cough (CC). A study was performed to investigate the efficacy of oral administration of Compound 16 in reducing daytime cough in idiopathic/treatment-resistant chronic cough.
In this study, a double-blind randomized placebo-controlled crossover trial, 24 subjects (19 women, mean age 55 yrs) were randomized into a double blind, placebo-controlled, 2-period, crossover study, of Compound 16, 600 mg bd. Cough was assessed using an ambulatory sound monitoring system at baseline and after 2 weeks of treatment; primary endpoint, daytime objective cough frequency (coughs/hr) (VitaloJAK™); secondary endpoints, cough severity and urge to cough (UTC) visual analogue scales (VAS), global ratings of change and cough quality of life questionnaire (CQLQ).

## COc1cc(C(C)C)c(Oc2cnc(N)nc2N)cc1S(N)(=O)=O [Compound 16, 5-(2,4-Diamino-pyrimidin-5-yloxy)-4-isopropyl-2-methoxy-benzenesulfonamide]
600 mg bd oral, (−2 to −17), p=0.018
  CQLQ (cough quality of life questionnaire), mean difference vs. placebo: −9
600 mg bd oral, (−2 to −41), p=0.035
  UTC (urge to cough) VAS, mean difference vs. placebo: −21 mm
600 mg bd oral, (−10 to −42), p=0.003
  cough severity VAS, mean difference vs. placebo: −26 mm
600 mg bd oral, compared to 2/22 treated with placebo
  patients who rated an improved cough (global rating of change): 13/24
Compound 16 600 mg bd oral, 24 subjects, 95% CI −50 to −88, p<0.001
  daytime coughs/hr (daytime objective cough frequency), mean difference vs. placebo: −75%
